pIC50: −log10 of the molar value. Where two headings read alike, the source gives them in different places.

The results in this text go back to US20090042901A1, “AGENT FOR PREVENTION/THERAPY OF DISEASE CAUSED BY KERATINOCYTE GROWTH” (KOWA CO., LTD., priority 2005, published 2009).

For assay [1], the system named is Normal human keratinocytes (newborn infant foreskin-derived epidermal keratinocyte). Description: Growth of normal human keratinocytes (H3-thymidine uptake). The class given is cell-based. The following applies: for pIC50: Homo sapiens, Keratinocyte, H3-thymidine uptake, 22 h + 2 h culture, 0.01 to 10 μM, read-out: Human keratinocyte growth inhibition IC50. The procedure:
Normal human keratinocytes (purchased from Kurabo Industries, Ltd.) were inoculated on a 48-well plate (Coster Corp.) at a concentration of 4×10^4 cells/well/500 μL, and were cultured overnight at 37° C. in the presence of 5% CO2. A compound of the present invention or activated vitamin D3 (Calcitriol; Wako Pure Chemical Industries, Ltd.) was added to a final concentration of 0.01 to 10 μM, and the cells were cultured for 22 hours. H^3-thymidine (Amersham plc.) was added, and the cells were incubated for another 2 hours. Subsequently, the cells were recovered after washing, and in a liquid scintillation counter (Packard Instrument Company, Inc.), the radioactivity taken up by the cells was measured. The results are presented as a ratio of the radioactivity taken up by the cells upon drug addition, with respect to the radioactivity of the case with no drug addition (Control), which was taken as 100%. The IC50 value, which is the concentration of the drug for inhibiting the uptake of radioactivity to 50% with respect to the control, was lower in the case of any of the Compounds 1 to 8 than in the case of Calcitriol.

A further assay deals with VCAM-1 expression. Description: VCAM-1 expression inhibitory activity in TNFα-stimulated HUVEC. The class given is cell-based. The note with it: Homo sapiens, TNFα 10 ng/mL, 4.5 hours, read-out: VCAM-1 expression inhibitory action IC50. The procedure: Human umbilical vein endothelial cells (HUVEC) (Sanko Junyaku Co., Ltd.) were suspended in EGM-2 medium (Sanko Junyaku Co., Ltd.) at a concentration of 5×10^4 cells/mL, and were inoculated on a 96-well plate (Corning Corp.) at a concentration of 1×10^4 cells/well. The cells were cultured at 37° C. in the presence of 5% CO2 for 4 days, then 100 μL of the medium was removed, and 25 μL each of the substance under test and TNFα (final concentration 10 ng/mL, PeproTech, Inc.) were added. After incubating the cells for 4.5 hours at 37° C., the medium was removed, and each well was washed once with 100 μL of Hank's Balanced Salt Solution containing 0.5% bovine serum albumin and 0.02% sodiumazide (HBSS/BSA). Subsequently, 30 μL of a blocking solution (1% whole goat serum (ICN Biomedicals, Inc.)/HBSS/BSA) was added, and the plate was left to stand for 30 minutes on the ice. After washing once with 100 μL of HBSS/BSA, 1 μg/mL of anti-human VCAM-1 antibody (Genzyme-Techne, Inc.) was added to each well in an amount of 30 μL, and the plate was incubated on the ice for 1 hour. After washing three times with HBSS/BSA (200 μL), peroxidase-labeled goat anti-mouse IgG antibody (Pierce Biotechnology, Inc.) diluted 2000-folds with HBSS/BSA was added in an amount of 30 μL/well, and was allowed to react for 1 hour. After washing 5 times with HBSS/BSA as described above, 100 μL/well of TMB substrate (Moss Inc.) was added, an enzymatic reaction was allowed to proceed for 15 to 30 minutes at 25° C., and then 1 mol/L sulfuric acid was added in an amount of 25 μL/well to stop the reaction. The absorbance at 492 nm was measured using a reference wavelength of 620 nm and using a 96-well plate spectrophotometer, Multiscan MS-UV (Labsystems, Inc.). The inhibitory rate was determined by taking the absorbance for the case of TNFα stimulation without drug addition, as 100%. In addition, the measurement was performed three times for each group.

The test system of assay [2] is TPA-stimulated SKH1-hrBR-Hairless mouse. As to the kind of experiment: Skin thickening in TPA-stimulated hairless mouse. In kind it is in vivo. The following applies: dorsal application of 50 μL after 10 nmol TPA, measured after 24 hours (FIG. 1). The procedure:
As an animal model for psoriasis, hairless mice stimulated with 12-O-tetradecanoylphorbol-13-acetate (hereinafter, referred to as TPA) were used (Sato, et al., Dermatology (1996) 192, 233-238). That is, on the dorsal side of a 7 to 8 weeks old female SKH1-hrBR-Hairless mouse (Charles River Laboratories Japan, Inc.), 10 nmol of TPA dissolved in acetone was applied, and then 50 μL of either the drug dissolved in acetone or Bonalfa (registered trademark) High (Teijin Pharma, Ltd.) was applied. After 24 hours, the thickness of the skin on the dorsal side was measured using a dial thickness gauge (Peacock G-1A, Ozaki MFG. Co., Ltd.), and the difference between the measured skin thickness and the skin thickness measured before TPA application was determined. The thickening of the skin thickness was suppressed by the application of the activated vitamin D3 preparation (Bonalfa (registered trademark) High). Also, the thickening of the skin thickness was suppressed by the application of the Compound 4.

A word on the pIC50: it is the negative decadic logarithm of the IC50, by convention in mol/L. On to `COc1cc(OC)cc(N(Cc2ccnc(-c3cc(OC)c(OC)c(OC)c3)c2)C2CCN(Cc3ccnc(-c4cc(OC)c(OC)c(OC)c4)c3)CC2)c1` [Compound 3], for which the pIC50 in assay [1] (24 h) is 7.31.

In the case of `COc1cc(-c2cncc(CN(c3ccc(SC)cc3)C3CCN(Cc4ccnc(-c5cc(OC)c(OC)c(OC)c5)c4)CC3)c2)cc(OC)c1OC` [Compound 2], the pIC50 in assay [1] (24 h) is 7.36; in the assay with VCAM-1 expression, 8.30.

`COc1cc(-c2cc(CN3CCC(N(C)Cc4ccnc(-c5cc(OC)c(OC)c(OC)c5)c4)CC3)ccn2)cc(OC)c1OC` [Compound 1]: the pIC50 was 7.18 in assay [1] (24 h) and 7.10 in the assay on VCAM-1 expression.

Turning to `COc1ccc(N(Cc2ccnc(-c3cc(OC)c(OC)c(OC)c3)c2)C2CCN(Cc3ccnc(-c4cc(OC)c(OC)c(OC)c4)c3)CC2)cc1` [Compound 4], the “Thickening of the skin thickness” value in assay [2] is reported as “suppressed”. The values for the pIC50 (in assay [1] (24 h); in assay [1]; in the assay with VCAM-1 expression) were 6.61, 6.61 and 7.70, respectively. Besides, in assay [1] (compared with Calcitriol), the “Efficacy relative to Calcitriol (keratinocyte growth inhibition IC50)” value is listed as “about 8 times”.
